Assay results from patent US20240368145A1, “METHODS FOR TREATING CANCER” (IMMUNIC AG, priority 2021, published 2024).

What was measured:
Type in all cases: cell-based
[1] = tested on: CCRFCEM (ALL); test: Oncotest inhibition of viability, CCRFCEM; settings: Homo sapiens, CCRF-CEM; ALL cell line CCRFCEM; read-out: IC50 range
[2] = tested on: LP1 (MM); test: Oncotest inhibition of viability, LP1; settings: MM cell line LP1; read-out: IC50 range
[3] = tested on: EM2 (CML); test: Oncotest inhibition of viability, EM2; settings: CML cell line EM2; read-out: IC50 range
[4] = tested on: PL21 (AML); test: Oncotest inhibition of viability, PL21; settings: PL-21; AML cell line PL21; read-out: IC50 range
[5] = tested on: KCL22 (CML); test: Oncotest inhibition of viability, KCL22; settings: Homo sapiens, KCL-22; CML cell line KCL22; read-out: IC50 range
[6] = tested on: RPMI8226 (MM); test: Oncotest inhibition of viability, RPMI8226; settings: Homo sapiens, RPMI-8226; MM cell line RPMI8226; read-out: IC50 range
[7] = tested on: ATAD2/ANCCA mRNA; test: Expression of AR target genes (qRT-PCR) in 22Rv1: ATAD2/ANCCA; settings: 22Rv1, 1 μM, 48h; relative to vehicle control (DMSO)
Procedure: (§1) The prostate cancer cell line 22Rv1 was treated for 48h with 1 μM Example compound 1, 1/1, 2/1, 2/2, 2/3, 2/4, 2/5, 2/6, 2/7, 2/8, 2/9 and 2/10 and reference compounds SR2211 and XY018. RNA was extracted using the RNA isolation kit XS (Macherey-Nagel) and following the manufacture's manual. RNA quantity was measured with the Nanodrop before reverse transcription using Superscript II (Invitrogen #100004925). For the quantitative real-time PCR with SYBR-Green (Qiagen #204074), the following primers were used:
(§2) qRT-PCR was performed using SYBR-Green (Qiagen #204074) reagents in a PCR cycler (Gorbett Research) Rotor Gene RG3000 with the following program: denaturation for 5′ at 95° C.; 40 cycles of 20″ at 95° C. and 15″ at 60° C.″ and at the end of the last cycle, the melting temperature of the products was determined by gradually increasing from 60° C. to 99° C. CT values from all samples were normalized to reference (housekeeping) genes using the mean CT value of the GAPDH and YWHAZ (reference genes). Next the values are put relative to the untreated control (vehicle/DMSO).

[8] = tested on: KLK3 mRNA; test: Expression of AR target genes (qRT-PCR) in 22Rv1: KLK3; settings: 22Rv1, 1 μM, 48h; relative to vehicle control (DMSO)
Procedure: as §1, §2

Structure (SMILES) | IC50 [1] [nM] | IC50 [2] [nM] | IC50 [3] [nM] | IC50 [4] [nM] | IC50 [5] [nM] | IC50 [6] [nM] | ATAD2/ANCCA mRNA expression [7] | KLK3 mRNA expression [8]
COC(=O)c1c(-c2c(F)cccc2Cl)noc1-c1cnn(-c2cccc(Cl)c2)c1C(F)(F)F [Example 1, Methyl 3-(2-chloro-6-fluorophenyl)-5-(1-(3-chlorophenyl)-5-(trifluoromethyl)-1H-pyrazol-4-yl)isoxazole-4-carboxylate] | 10 to 100 | 10 to 100 | 10 to 100 | 100 to 1000 | 10 to 100 | < 10 |  | 
CC(C)(O)CCn1ncc(-c2onc(-c3c(F)cccc3Cl)c2-c2ncccn2)c1C(F)(F)F [2/8] |  |  |  |  |  |  | 0.817 | 1.152
